From patent US9434993B2, “Systems for identifying cosmetic agents for skin care compositions” (The Procter & Gamble Company, priority 2011, dated 2016)
“Also recorded” adds a separate entry of the source.

Key:
[1] = system: Telomerized-keratinocytes; assay: Microscopic evaluation of cell morphology, telomerized keratinocytes; format: cell-based, human; conditions: 10 μM in DMSO for 6 hr; vs 0.1% DMSO vehicle control
Experimental: (§1) All cells were incubated at 37° C. in a humidified incubator with 5% CO2. At t=−24 hours cells were trypsinized from T-75 flasks and plated into 6-well plates in basal growth medium. At t=0 media was removed and replaced with the appropriate dosing solution as per the experimental design. Dosing solutions were prepared the previous day in sterile 4 ml Falcon snap cap tubes. Pure test materials may be prepared at a concentration of 1-200 μM, and botanical extracts may be prepared at a concentration of 0.001 to 1% by weight of the dosing solution. After 6 to 24 hours of chemical exposure, cells were viewed and imaged. The wells were examined with a microscope before cell lysis and RNA isolation to evaluate for morphologic evidence of toxicity. […] Cells were then lysed with 350 ul/well of RLT buffer containing β-mercaptoethanol (Qiagen, Valencia, Calif.), transferred to a 96-well plate, and stored at −20° C.

[2] = system: BJ fibroblasts; assay: Microscopic evaluation of cell morphology, BJ fibroblasts; format: cell-based, human; conditions: 10 μM in DMSO for 6 hr; vs 0.1% DMSO vehicle control
Experimental: as §1

CC1=C(/C=C/C(C)=C/C=C/C(C)=C/C(=O)O)C(C)(C)CCC1 [tRA, all-trans-retinoic acid]
morphology of treated keratinocytes [1]: marked morphologic changes; also recorded: dramatic morphologic changes | morphology of treated fibroblasts [2]: no apparent morphologic effect
